Values quoted from earlier work, collected in patent publication US20170232011A1, “PHARMACEUTICAL COMPOSITION AND METHOD FOR THE TREATMENT OF URINARY TRACT INFECTIONS” (priority 2016, published 2017).

Legend:
[1] = tested on: Coagulase negative staphylococci
[2] = tested on: Staphylococcus saprophyticus
[3] = 100 mg oral dose

Compound	activity against Enterococcus faecalis (Enterococcus faecalis)	activity against Streptococcus agalactiae (Streptococcus agalactiae)	activity against Klebsiella species (Klebsiella species)	activity against E. coli (E. coli)	activity against Coagulase negative staphylococci [1]	activity against Staphylococcus aureus (Staphylococcus aureus)	activity against Citrobacter species (Citrobacter species)	activity against Staphylococcus saprophyticus [2]	plasma levels ([3]; plasma)	level in the urine ([3]; urine)	oral dose excreted directly into the urine chemically unchanged
O=C1CN(N=Cc2ccc([N+](=O)[O-])o2)C(=O)N1 [Nitrofurantoin, 1-[[[5-nitro-2-furanyl]methylene]amino]-2,4-imidazolidinedione]	good activity	good activity	good activity	good activity	good activity	good activity	good activity	good activity	less than 1 μg/ml	200 µg/mL	
Nc1ccc(N=Nc2ccccc2)c(N)n1 [Phenazopyridine, 3-phenyldiazenylpyridine-2,6-diamine]											~65%
